Molecular target: Protein phosphatase methylesterase 1 (Homo sapiens) (UniProt Q9Y570)
Assay: PME-1 inhibitors by competitive ABPP, late-stage follow-up, gel-based ABPP, IC50, set 1 (AID 463130)
Details: fluorophosphonate probe labeling

Chain of Protein phosphatase methylesterase 1 (Homo sapiens) (Q9Y570 whole entry, looked up): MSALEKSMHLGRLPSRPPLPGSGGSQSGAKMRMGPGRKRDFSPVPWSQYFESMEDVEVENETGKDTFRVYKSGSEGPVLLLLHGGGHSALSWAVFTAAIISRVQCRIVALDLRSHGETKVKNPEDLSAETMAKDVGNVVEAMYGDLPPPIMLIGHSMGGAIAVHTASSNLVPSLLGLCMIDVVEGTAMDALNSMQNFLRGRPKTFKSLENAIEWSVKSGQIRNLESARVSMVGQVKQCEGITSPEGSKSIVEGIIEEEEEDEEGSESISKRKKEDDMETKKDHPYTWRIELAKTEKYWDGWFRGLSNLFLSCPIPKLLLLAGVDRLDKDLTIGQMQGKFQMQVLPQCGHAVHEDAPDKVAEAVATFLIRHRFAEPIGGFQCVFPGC

## COC(=O)N1C(=O)[C@](c2ccccc2)(C(C)C)N1C(=O)OC
  IC50: 195 nM

Reference: PubChem BioAssay AID463130 (The Scripps Research Institute Molecular Screening Center, 2010)
